Data published in the NIST ThermoML archive (doi:10.1016/j.fluid.2006.06.017).

Columns and labels:
[1] = Liquid; for mass density: 298.15 K, 101.33 kPa; for vapor or sublimation pressure: Ebulliometric method (Recirculating still)
[2] = refractive index (Na D-line) (dimensionless); conditions: 298.15 K; 101.33 kPa; Liquid; Standard Abbe refractometry

CCCCO [butan-1-ol]
Conditions | mass density [kg/m3] | refractive index
[1] | 805.65 | –
[2] | – | 1.3976

[1]
Conditions | vapor or sublimation pressure [kPa]
351.18 K | 20
390.75 K | 101.3

CCCOCCC [dipropyl ether]
Conditions | mass density [kg/m3] | refractive index
[1] | 741.81 | –
[2] | – | 1.3784

[1]
Conditions | vapor or sublimation pressure [kPa]
302.6 K | 10.47
306.36 K | 12.43
310.41 K | 14.95
313.39 K | 16.91
315.97 K | 18.97
317.33 K | 20
318.45 K | 20.97
320.69 K | 22.93
323.79 K | 25.95
326.58 K | 28.97
329.15 K | 31.95
331.52 K | 34.95
333.76 K | 37.95
335.79 K | 40.9
337.8 K | 43.95
339.62 K | 46.85
341.27 K | 49.7
343.07 K | 52.91
345.22 K | 56.95
347.19 K | 60.85
349.07 K | 64.87
351.36 K | 69.9
353.45 K | 74.84
355.48 K | 79.91
357.37 K | 84.8
359.21 K | 89.75
360.93 K | 94.65
363.16 K | 101.3

CCCO [propan-1-ol]
Conditions | mass density [kg/m3] | refractive index
[1] | 799.62 | –
[2] | – | 1.3836

[1]
Conditions | vapor or sublimation pressure [kPa]
332.63 K | 20
369.75 K | 101.3
